Patent US10568856B2, “Composition for improved sleep” (Jamieson Laboratories, Ltd., priority 2015, dated 2020)

Assay: Melatonin time release profile (dissolution testing) of bilayer caplet
Type: physicochemical
Conditions: for Melatonin Released (%): bilayer caplet
From the text: Initially, a small portion of melatonin was being added to the immediate release layer. […] The premix blends were modified by relocating all melatonin ingredients to the time release layer. During initial trials, modifications were also made to excipients for cost purposes. […] The final bilayer caplet is coated, making it easier to swallow, with peppermint oil for odour masking. With these optimum parameters assessed for each layer, the tablet satisfies all of the requisite physical and chemical parameters to deliver the ingredients as intended.

Structure (SMILES): COc1ccc2[nH]cc(CCNC(C)=O)c2c1 [Melatonin]
- Melatonin Released (%) (hardness 28 kp, time 15 minutes): 20%
- Melatonin Released (%) (hardness 28 kp, time 60 minutes): 57%
- Melatonin Released (%) (hardness 28 kp, time 360 minutes): 99%
- Melatonin Released (%) (hardness 30 kp, time 15 minutes): 18%
- Melatonin Released (%) (hardness 30 kp, time 60 minutes): 52%
- Melatonin Released (%) (hardness 30 kp, time 360 minutes): 98%
- melatonin release in dissolution testing (initial trial formulation with a small portion of melatonin in the immediate release layer): released too quickly
